Literature values, collected in PubChem BioAssay AID1259409 (Chemical Carcinogenesis Research Information System (CCRIS), 2018).

System: rodent chemically induced tumor inhibition, incidence and multiplicity
Assay: CCRIS tumor inhibitor studies

What does the source list for `CC/C(=C(\c1ccccc1)c1ccc(OCCN(C)C)cc1)c1ccccc1`?
tumour outcome (control, treated, inhibition, significance) (Carcinogen: 1,2-DIMETHYLHYDRAZINE HYDROCHLORIDE, 306-37-6, Dose [Inhibitor]: 0, 0.5 UG/G/D IN DIET FOR 28 WK (STUDY DURATION: 28 WK), Route [Inhibitor]: ORAL, Species: RAT, Strain/Sex: SPRAGUE-DAWLEY/FEMALE, Target Tissue: Type of Lesion: COLON: TUMOR, Dose [Carcinogen]: 20 MG/KG BW 1/WK FOR 28 WK, Promoter: NONE USED): 26/36 (72%), 17/33 (52%), 28%, p<0.001; tumour outcome (control, treated, inhibition, significance) (Carcinogen: 3-METHYLCHOLANTHRENE, 56-49-5, Dose [Inhibitor]: 0, 50 UG/KG FOR DURATION OF STUDY (STUDY DURATION: LIFETIME), Route [Inhibitor]: SUBCUTANEOUS, Species: MOUSE, Strain/Sex: SWISS/FEMALE, Target Tissue: Type of Lesion: CERVIX: CARCINOMA, Dose [Carcinogen]: CARCINOGEN AND BEESWAX (1:3) IMPREGNATED THREAD INSERTED IN THE CANAL OF THE UTERINE CERVIX, Promoter: NONE USED): 60%, 30%, 50%, p<0.01; tumour outcome (control, treated, inhibition, significance) (Carcinogen: 3-METHYLCHOLANTHRENE, 56-49-5, Dose [Inhibitor]: 0, 50 UG/KG GIVEN TO OOPHERECTOMIZED MICE 3/WK FOR DURATION OF STUDY (STUDY DURATION: LIFETIME), Route [Inhibitor]: SUBCUTANEOUS, Species: MOUSE, Strain/Sex: SWISS/FEMALE, Target Tissue: Type of Lesion: CERVIX: CARCINOMA, Dose [Carcinogen]: CARCINOGEN AND BEESWAX (1:3) IMPREGNATED THREAD INSERTED IN THE CANAL OF THE UTERINE CERVIX, Promoter: NONE USED): 62%, 27%, 56%, p<0.01; tumour outcome (control, treated, inhibition, significance) (Carcinogen: 7,12-DIMETHYLBENZ[A]ANTHRACENE (57-97-6), Dose [Inhibitor]: 0.125 MG/KG DIET FOR 17 WKS (STUDY DURATION: 17 WKS), Route [Inhibitor]: DIET, Species: RAT, Strain/Sex: SPRAGUE-DAWLEY/FEMALE (20,18)/(20,18), Target Tissue: Type of Lesion: MAMMARY, Dose [Carcinogen]: 12.5 MG ONCE 1 WK AFTER START OF DIETS (STUDY DURATION: 17 WKS)): 95%, 73%, 23%, p=0.015; tumour outcome (control, treated, inhibition, significance) (Carcinogen: 7,12-DIMETHYLBENZ[A]ANTHRACENE (DMBA) (57-97-6), Dose [Inhibitor]: 50 MG/KG/D FOR 37 WK (STUDY DURATION: 37 WK), Route [Inhibitor]: ORAL GAVAGE, Species: MOUSE, Strain/Sex: SENCAR/FEMALE, Target Tissue: Type of Lesion: MAMMARY: CARCINOMA, Dose [Carcinogen]: 20 UG/D FOR 6 WKS (STUDY DURATION: 37 WKS), Promoter: MEDROXYPROGESTERONE ACETATE (71-58-9)): 10/21 (48%); 0%, 100%, p=0.0004; tumour outcome (control, treated, inhibition, significance) (Carcinogen: 7,12-DIMETHYLBENZ[A]ANTHRACENE (DMBA) [57-97-6], Dose [Inhibitor]: 50 MG/KG/D FOR 52 WK (STUDY DURATION: 52 WK), Route [Inhibitor]: ORAL GAVAGE, Species: MOUSE, Strain/Sex: SENCAR/FEMALE, Target Tissue: Type of Lesion: MAMMARY: CARCINOMA, Dose [Carcinogen]: 20 UG/D FOR 6 WKS, Promoter: MEDROXYPROGESTERONE ACETATE (71-58-9)): 13/23 (57%); 0/20 (0%), 100%, p=0.00003; tumour outcome (control, treated, inhibition, significance) (Carcinogen: 17 BETA-ESTRADIOL, 50-28-2, Dose [Inhibitor]: 25 MG PELLETS CONTAINING 90% TAMOXIFEN ADMINISTERED ONCE AT BEGINNING OF STUDY AND ONCE AT 3.5 MO, ADMINISTERED CONCURRE, Route [Inhibitor]: SUBCUTANEOUS IMPLANT, Species: HAMSTER, Strain/Sex: SYRIAN/MALE, Target Tissue: Type of Lesion: KIDNEY: RENAL CARCINOMA, Dose [Carcinogen]: 25 MG PELLETS CONTAINING 90% ESTRADIOL ONCE AT BEGINNING OF STUDY AND ONCE AT 3.5 MO, Promoter: NONE USED): 3/3 (100%), 2/8 (25%), 75%, not calculated; tumour outcome (control, treated, inhibition, significance) (Carcinogen: ETHYL METHANESULFONATE, 62-50-0, Dose [Inhibitor]: 0, 50 MG/KG 1/WK FOR 4 WK BEGINNING POST CARCINOGEN TREATMENT (STUDY DURATION: 30 WK), Route [Inhibitor]: SUBCUTANEOUS, Species: RAT, Strain/Sex: WISTAR/FEMALE, Target Tissue: Type of Lesion: MAMMARY GLAND: CARCINOMA, Dose [Carcinogen]: 0.01 MOLAR SOLUTION IN DRINKING WATER FOR 12 WK, Promoter: NONE USED): 100%, 100%, 0%, not significant; tumour outcome (control, treated, inhibition, significance) (Carcinogen: ETHYL METHANESULFONATE, 62-50-0, Dose [Inhibitor]: 0, 50 MG/KG 1/WK FOR 4 WK CONCOMITANTLY WITH CARCINOGEN TREATMENT (STUDY DURATION: 30 WK), Route [Inhibitor]: SUBCUTANEOUS, Species: RAT, Strain/Sex: WISTAR/FEMALE, Target Tissue: Type of Lesion: MAMMARY GLAND: CARCINOMA, Dose [Carcinogen]: 0.01 MOLAR SOLUTION IN DRINKING WATER FOR 12 WK, Promoter: NONE USED): 100%, 50%, 50%, p<0.01; tumour outcome (control, treated, inhibition, significance) (Carcinogen: ETHYLNITROSOUREA [759-73-9], Dose [Inhibitor]: 420 MG/K DIET FOR 60 WK (STUDY DURATION: 60 WK), Route [Inhibitor]: DIET, Species: MOUSE, Strain/Sex: B6C3F1/MALE (?,44)/(?,47), Target Tissue: Type of Lesion: LIVER: HEPATOCELLULAR CARCINOMA, Dose [Carcinogen]: 120 UG/KG ONCE): 11/44 (25%), 2/47 (4%), 84%, p<0.001; tumour outcome (control, treated, inhibition, significance) (Carcinogen: N-ETHYL-N'-NITRO-N-NITROSOGUANADINE, 4245-77-6, Dose [Inhibitor]: 0, 70 MG/KG BW IN CHOLESTEROL IMPLANTED 1 WK POST CARCINOGEN DOSE, IMPLANTS REPLACED AT 6 TO 8 WK INTERVALS FOR THE DURA, Route [Inhibitor]: SUBCUTANEOUS IMPLANT, Species: RAT, Strain/Sex: DONRYU/FEMALE, Target Tissue: Type of Lesion: UTERUS: ADENOCARCINOMA, Dose [Carcinogen]: 20 MG/KG BW ONCE, Promoter: NONE USED): 9/29 (31%), 0/30 (0%), 100%, not calculated; tumour outcome (control, treated, inhibition, significance) (Carcinogen: N-ETHYL-N'-NITRO-N-NITROSOGUANADINE, 4245-77-6, Dose [Inhibitor]: 0, 70 MG/KG BW IN CHOLESTEROL IMPLANTED 20 WKS POST CARCINOGEN DOSE, IMPLANTS REPLACED AT 6 TO 8 WK INTERVALS FOR DURATI, Route [Inhibitor]: SUBCUTANEOUS IMPLANT, Species: RAT, Strain/Sex: DONYRU/FEMALE, Target Tissue: Type of Lesion: UTERUS: ADENOCARCINOMA, Dose [Carcinogen]: 20 MG/KG BW ONCE, Promoter: NONE USED): 9/29 (31%), 0/29 (0%), 100%, not calculated; tumour outcome (control, treated, inhibition, significance) (Carcinogen: N-METHYL-N'-NITROSOUREA, 684-93-5, Dose [Inhibitor]: 0, 0.125 MG/KG IN DIET FOR DURATION OF STUDY BEGINNING 60 D PRIOR TO CARCINOGEN DOSE (STUDY DURATION: 240 D), Route [Inhibitor]: ORAL, Species: RAT, Strain/Sex: SPRAGUE-DAWLEY/FEMALE, Target Tissue: Type of Lesion: MAMMARY GLAND: TUMOR, Dose [Carcinogen]: 50 MG/KG BW ONCE, Promoter: NONE USED): 68%, 62%, 9%, not significant; tumour outcome (control, treated, inhibition, significance) (Carcinogen: N-METHYL-N'-NITROSOUREA, 684-93-5, Dose [Inhibitor]: 0, 0.25 MG/KG IN DIET FOR DURATION OF STUDY BEGINNING 60 D PRIOR TO CARCINOGEN DOSE (STUDY DURATION: 240 D), Route [Inhibitor]: ORAL, Species: RAT, Strain/Sex: SPRAGUE-DAWLEY/FEMALE, Target Tissue: Type of Lesion: MAMMARY GLAND: TUMOR, Dose [Carcinogen]: 50 MG/KG BW ONCE, Promoter: NONE USED): 80%, 25%, 69%, p<0.005; tumour outcome (control, treated, inhibition, significance) (Carcinogen: N-METHYL-N-NITROSOUREA, 684-93-5, Dose [Inhibitor]: 0, 0.2 MG/KG IN DIET FOR THE DURATION OF STUDY BEGINNING 7 D PRIOR TO CARCINOGEN DOSE (STUDY DURATION: 187 D), Route [Inhibitor]: ORAL, Species: RAT, Strain/Sex: SPRAGUE-DAWLEY/FEMALE, Target Tissue: Type of Lesion: MAMMARY GLAND: TUMOR, Dose [Carcinogen]: 50 MG/KG BW ONCE, Promoter: NONE USED): 100%, 100%, 0%, not significant
